Source: US20210069120A1, “COMPOSITE NANOPARTICLE, PREPARATION METHOD THEREOF AND PREPARATION METHOD OF COMPOSITE NANO PREPARATION USING THEREOF” (JINAN UNIVERSITY, priority 2018, published 2021)

What was measured:
[1] = tested on: MDA-MB-231 cells; assay: Apoptosis of MDA-MB-231 cells detected by flow cytometry (Annexin V-FITC/PI); format: cell-based, human
Protocol: After Blank PLN, PTX, PSO, I-PSO, PTX+PSO+I-PSO and (PTX+PSO+I-PSO)-PLN were used to act on the MDA-MB-231 cells respectively, a blank control without drug treatment was set at the same time. Cells were collected, an Annexin V-FITC buffer solution and a propidium iodide (PI) staining solution were added respectively, and cell apoptosis was detected by a flow cytometry, wherein green fluorescence was Annexin V-FITC, and red fluorescence was PI. Annexin V-FITC/PI double staining was dominant in late apoptotic cells and dead cells which referred to an upper right region on a flow cytometry diagram, while AnnexinV-FITC staining was dominant in early apoptotic cells which referred to a lower right region on the flow cytometry diagram. The experiment was repeated for three times.

[2] = tested on: MDA-MB-231 cells; assay: MTT proliferation inhibition / toxicity on MDA-MB-231; format: cell-based, human; details: 48 hours, concentration range of 0.39 to 100 μmol/L
Protocol: 4×10^3 MDA-MB-231 cells/well were inoculated into a 96-well plate with a concentration of 100 μL/well, and cultured in a 5% CO2 cell incubator at 37° C. for 24 hours, then a supernatant was removed after 24 hours, and 200 μL of drug-containing medium was added. The final concentrations of the PTX added to the MDA-MB-231 cells were 0.0039 μmol/L, 0.0078 μmol/L, 0.0156 μmol/L, 0.03125 μmol/L, 0.0625 μmol/L, 0.125 μmol/L, 0.25 μmol/L, 0.5 μmol/L and 1 μmol/L. At the same time, a control group (the same amount of culture fluid was added) and a blank zeroing group were set up. Each well was provided with 6 multiple wells and placed in a CO2 incubator for continuous cultivation for 48 hours. […] An OD value was measured at 570 nm of an enzyme reader. […]
(§1) 4×10^3 MDA-MB-231 cells/well were inoculated into a 96-well plate with a concentration of 100 μL/well, and cultured in a 5% CO2 cell incubator at 37° C. for 24 hours, then a supernatant was removed after 24 hours, and 200 μL of drug-containing medium was added. […] An OD value was measured at 570 nm of an enzyme reader. […]
as §1

## O=c1ccc2ccc3occc3c2o1 [I-PSO, isopsoralen]
[1]
  Apoptosis rate (%) of MDA-MB-231 cells: 11.5%

## O=c1ccc2cc3ccoc3cc2o1 [PSO, psoralen]
[2]
  toxicity to the MDA-MB-231 cells (cell viability): no obvious toxicity
[1]
  Apoptosis rate (%) of MDA-MB-231 cells: 13.8%

## CC(=O)O[C@H]1C(=O)[C@@]2(C)[C@H]([C@H](OC(=O)c3ccccc3)[C@]3(O)C[C@H](OC(=O)[C@H](O)[C@@H](NC(=O)c4ccccc4)c4ccccc4)C(C)=C1C3(C)C)[C@]1(OC(C)=O)CO[C@@H]1C[C@@H]2O [PTX, paclitaxel]
[1]
  Apoptosis rate (%) of MDA-MB-231 cells: 15.1%
